Test results from US20240383911A1, “AZAINDAZOLE MACROCYCLE COMPOUNDS AND USES THEREOF” (BROADENBIO CO., LTD, priority 2021, published 2024).

Legend:
Human Jurkat-E6-1 cells = assay: Detection of IL-2 production by Jurkat cells using ELISA; type: cell-based; conditions: anti-CD3/anti-CD28 stimulation 24 hours, read-out: Percentage of the amount of IL-2 secreted by compound treated vs DMSO-treated cells; for activity at 1 µM: tested compound 1.0 μM; for activity at 0.33 µM: tested compound 0.33 μM
Description: (§1) Tested compounds: compounds prepared in the Examples of this invention.
Human Jurkat-E6-1 cells were incubated with various concentrations of tested compounds for 30 minutes in a humidified incubator at 37° C. and 5% CO2. Cells were transferred to cell culture plates pre-coated with anti-human CD3 antibody, then soluble anti-human CD28 antibody was added, and cells were stimulated for 24 hours at 37° C. and 5% CO2 in a humidified incubator. The cell culture medium was collected after centrifugation, and was then transferred to a 96-well transparent microtiter plate (Thermo) pre-coated with anti-human IL-2 antibody, incubated at room temperature for 2 hours with gently shaking, washed with washing buffer for 4 times, and then followed the ELISA MAX Deluxe Set Human IL-2 (BioLegend) kit procedures, used a microplate reader (Molecular Device, i3X) to read the GD value at 450 nm. The best standard curve was selected by the microplate reader application software, and the corresponding concentration was calculated according to the GD value of the standard. Results are expressed as a percentage (%) of the amount of IL-2 secreted by compound-treated vs DMSO-treated cells.

HPK1 = HPK1 (Homo sapiens, UniProt Q92918); assay: HPK1 kinase activity inhibition test (ADP-Glo, luminescence); type: biochemical; conditions: 2 μM ATP, 5 nM HPK1, read-out: IC50, inhibitory effects on HPK1 kinase activity
Description: The kinase activity of HPK1 is manifested as activity of autophosphorylation and phosphorylation of downstream substrates. In the process of autophosphorylation, additional substrates are not required, and ATP is consumed to generate ADP. The amount of the product is measured by ADP-Glo reagent and luminescence method to reflect kinase activity.
as §1
Preparation of compound stock solution: dissolve the test compound in 100% DMSO to make a 10 mM stock solution;
Preparation of 4×Kinase Reaction Buffer:
Preparation of 2×HPK1 Kinase Solution:
Preparation of 4×ATP Mixture:
Dilute the stock solution of the test compound by 5 times with 100% DMSO, make a 4-fold equal dilution in a 96-well dilution plate, add 1 μL of the compound to 49 μL of kinase reaction buffer, and shake on a microplate shaker for 20 minutes. Transfer 2 μL of 2×HPK1 kinase solution to 384 reaction plate, add 1 μL of the test compound to the 384 reaction plate (Greiner, Cat #784075), centrifuge for 1 minute (1000 rpm/min), incubate at 25° C. for 10 minutes. Transfer 1 μL of the 4×ATP mixture to a 384 reaction plate, centrifuge for 1 minute (1000 rpm/min), and incubate at 25° C. for 60 minutes. In the reaction system, the final concentration of DMSO is 0.5%. Transfer 4 μL of ADP-Glo to a 384 reaction plate, centrifuge for 1 minute (1000 rpm/min), and incubate at 25° C. for 40 minutes. Transfer 8 μL detection solution to a 384 reaction plate, centrifuge for 1 minute (1000 rpm/min), and incubate at 25° C. for 40 minutes. The […] is read using a Biotek multi-function plate reader, and the IC50 (half inhibitory concentration) of the compound is obtained using a four-coefficient nonlinear fitting formula.

Chain of HPK1 (Q92918 whole entry): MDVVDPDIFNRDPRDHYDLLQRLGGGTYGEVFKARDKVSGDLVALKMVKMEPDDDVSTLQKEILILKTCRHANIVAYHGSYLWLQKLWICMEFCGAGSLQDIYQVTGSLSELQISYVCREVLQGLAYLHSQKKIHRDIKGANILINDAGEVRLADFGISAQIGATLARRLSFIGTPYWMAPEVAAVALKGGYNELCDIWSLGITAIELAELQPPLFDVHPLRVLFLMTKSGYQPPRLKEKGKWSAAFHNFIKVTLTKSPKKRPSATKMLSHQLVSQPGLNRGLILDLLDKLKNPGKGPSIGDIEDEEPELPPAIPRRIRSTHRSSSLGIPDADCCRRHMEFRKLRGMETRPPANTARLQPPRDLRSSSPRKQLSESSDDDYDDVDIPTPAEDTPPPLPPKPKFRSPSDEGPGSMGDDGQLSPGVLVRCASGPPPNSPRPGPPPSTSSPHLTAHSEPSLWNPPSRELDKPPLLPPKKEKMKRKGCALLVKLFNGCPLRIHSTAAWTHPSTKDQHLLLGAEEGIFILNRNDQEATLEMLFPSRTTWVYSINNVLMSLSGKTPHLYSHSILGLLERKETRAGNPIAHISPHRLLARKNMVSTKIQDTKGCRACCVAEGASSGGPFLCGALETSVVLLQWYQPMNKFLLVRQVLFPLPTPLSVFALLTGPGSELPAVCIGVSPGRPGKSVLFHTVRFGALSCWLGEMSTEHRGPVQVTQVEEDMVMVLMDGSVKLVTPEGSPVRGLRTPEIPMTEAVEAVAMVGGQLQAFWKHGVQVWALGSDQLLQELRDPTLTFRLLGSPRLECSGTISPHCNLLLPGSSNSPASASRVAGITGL

Row | Compound | activity at 1 µM (Human Jurkat-E6-1 cells) [%] | IC50 (HPK1) [nM] | activity at 0.33 µM (Human Jurkat-E6-1 cells) [%]
1 | OC1CCN(c2ccc3cc2OCCCOc2cccc(F)c2-c2cc4c-3n[nH]c4cn2)CC1 [Compound 106, 16-fluoro-5-(4-hydroxypiperidin-1-yl)-7,11-dioxa-19,22,23-triazapentacyclo[16.5.2.1^2,6.0^12,17.0^21,24]hexacosa-1(23),2,4,6(26),12(17),13,15,18,20,24-decaene] | 504 | 5 to 50 | –
2 | OC1CCN(c2ccc3cc2OCCCOCc2cccc(F)c2-c2cc4c-3n[nH]c4cn2)CC1 [Compound 107, 17-fluoro-5-(4-hydroxypiperidin-1-yl)-7,11-dioxa-20,23,24-triazapentacyclo[17.5.2.1^2,6.0^13,18.0^22,25]heptacosa-1(24),2,4,6(27),13(18),14,16,19,21,25-decaene] | 345 | ≤ 5 | –
3 | CN1CCN(C2CCN(c3ccc4cc3OCCCOc3cccc(F)c3-c3cc5c-4n[nH]c5cn3)CC2)CC1 [Compound 108, 16-fluoro-5-[4-(4-methylpiperazin-1-yl)piperidin-1-yl]-7,11-dioxa-19,22,23-triazapentacyclo[16.5.2.1^2,6.0^12,17.0^21,24]hexacosa-1(23),2,4,6(26),12(17),13,15,18,20,24-decaene] | – | ≤ 5 | 213
4 | CN1CCN(C2CCN(c3ccc4cc3OCCCOCc3cccc(F)c3-c3cc5c-4n[nH]c5cn3)CC2)CC1 [Compound 109, 17-fluoro-5-[4-(4-methylpiperazin-1-yl)piperidin-1-yl]-7,11-dioxa-20,23,24-triazapentacyclo[17.5.2.1^2,6.0^13,18.0^22,25]heptacosa-1(24),2,4,6(27),13(18),14,16,19,21,25-decaene] | 264 | ≤ 5 | –
5 | CN(C)C1(C)CCN(c2ccc3cc2OCCCOc2cccc(F)c2-c2cc4c-3n[nH]c4cn2)CC1 [Compound 110, 1-{16-fluoro-7,11-dioxa-19,22,23-triazapentacyclo[16.5.2.1^2,6.0^12,17.0^21,24]hexacosa-1(23),2,4,6(26),12(17),13,15,18,20,24-decaen-5-yl}-N,N,4-trimethylpiperidin-4-amine] | – | ≤ 5 | 222
6 | CN(C)C1(C)CCN(c2ccc3cc2OCCCOCc2cccc(F)c2-c2cc4c-3n[nH]c4cn2)CC1 [Compound 111, 1-{17-fluoro-7,11-dioxa-20,23,24-triazapentacyclo[17.5.2.1^2,6.0^13,18.0^22,25]heptacosa-1(24),2,4,6(27),13(18),14,16,19,21,25-decaen-5-yl}-N,N,4-trimethylpiperidin-4-amine] | – | ≤ 5 | 388
7 | OC1CCN(C2CCN(c3ccc4cc3OCCCOCc3cccc(F)c3-c3cc5c-4n[nH]c5cn3)CC2)CC1 [Compound 112, 1′-{17-fluoro-7,11-dioxa-20,23,24-triazapentacyclo[17.5.2.1^2,6.0^13,18.0^22,25]heptacosa-1(24),2,4,6(27),13(18),14,16,19,21,25-decaen-5-yl}-[1,4'-bipiperidin]-4-ol] | 245 | ≤ 5 | –
8 | OC1(CN2CCOCC2)CCN(c2ccc3cc2OCCCOc2cccc(F)c2-c2cc4c-3n[nH]c4cn2)CC1 [Compound 113, 1-{16-fluoro-7,11-dioxa-19,22,23-triazapentacyclo[16.5.2.1^2,6.0^12,17.0^21,24]hexacosa-1(23),2,4,6(26),12(17),13,15,18,20,24-decaen-5-yl}-4-[(morpholin-4-yl)methyl]piperidin-4-ol] | – | 5 to 50 | 265
9 | CN1CCN(c2ccc3cc2OCC(O)COc2cccc(F)c2-c2cc4c-3n[nH]c4cn2)CC1 (centres unmarked) [Compound 114, 16-fluoro-5-(4-methylpiperazin-1-yl)-7,11-dioxa-19,22,23-triazapentacyclo[16.5.2.1^2,6.0^12,17.0^21,24]hexacosa-1(23),2,4,6(26),12(17),13,15,18,20,24-decaen-9-ol] | – | ≤ 5 | 239
10 | CN1CCN(c2ccc3cc2OCCCOCc2cccc(F)c2-c2ncc4[nH]nc-3c4n2)CC1 [Compound 115, 17-fluoro-5-(4-methylpiperazin-1-yl)-7,11-dioxa-20,23,24,26-tetraazapentacyclo[17.5.2.1^2,6.0^13,18.0^22,25]heptacosa-1(24),2,4,6(27),13(18),14,16,19,21,25-decaene] | 263 | 5 to 50 | –
11 | CN1C2CC1CN(c1ccc3cc1OCCCOCc1cccc(F)c1-c1cc4c-3n[nH]c4cn1)C2 [Compound 116, 17-fluoro-5-{6-methyl-3,6-diazabicyclo[3.1.1]heptan-3-yl}-7,11-dioxa-20,23,24-triazapentacyclo[17.5.2.1^2,6.0^13,18.0^22,25]heptacosa-1(24),2,4,6(27),13(18),14,16,19,21,25-decaene] | – | ≤ 5 | 450
12 | CN1C2CC1CN(c1ccc3cc1OCCCOc1cccc(F)c1-c1cc4c-3n[nH]c4cn1)C2 [Compound 117, 16-fluoro-5-{6-methyl-3,6-diazabicyclo[3.1.1]heptan-3-yl}-7,11-dioxa-19,22,23-triazapentacyclo[16.5.2.1^2,6.0^12,17.0^21,24]hexacosa-1(23),2,4,6(26),12(17),13,15,18,20,24-decaene] | 525 | ≤ 5 | –
13 | O[C@@H]1COc2cc(ccc2N2CCN3CCOC[C@H]3C2)-c2n[nH]c3cnc(cc23)-c2c(F)cccc2OC1 [Compound 120, (9S)-5-[(9aR)-octahydropyrazino[2,1-c][1,4]oxazin-8-yl]-16-fluoro-7,11-dioxa-19,22,23-triazapentacyclo[16.5.2.1^2,6.0^12,17.0^21,24]hexacosa-1(23),2,4,6(26),12(17),13,15,18,20,24-decaen-9-ol] | 494 | ≤ 5 | –
14 | CN1CCN(c2ccc3cc2OCCCOCc2cccc(F)c2-c2cc4c-3n[nH]c4cn2)C[C@@H]1CO [Compound 121, [(2R)-4-{17-fluoro-7,11-dioxa-20,23,24-triazapentacyclo[17.5.2.1^2,6.0^13,18.0^22,25]heptacosa-1(24),2,4,6(27),13(18),14,16,19,21,25-decaen-5-yl}-1-methylpiperazin-2-yl]methanol] | – | ≤ 5 | 467
15 | O=C1OC[C@H]2CN(c3ccc4cc3OCCCOCc3cccc(F)c3-c3cc5c-4n[nH]c5cn3)CCN12 [Compound 123, (8aR)-7-{17-fluoro-7,11-dioxa-20,23,24-triazapentacyclo[17.5.2.1^2,6.0^13,18.0^22,25]heptacosa-1(24),2,4,6(27),13(18),14,16,19,21,25-decaen-5-yl}-hexahydro-1H-[1,3]oxazolo[3,4-a]pyrazin-3-one] | 440 | ≤ 5 | –
16 | O=C1OC[C@@H]2CN(c3ccc4cc3OCCCOCc3cccc(F)c3-c3cc5c-4n[nH]c5cn3)CCN12 [Compound 124, (8aS)-7-{17-fluoro-7,11-dioxa-20,23,24-triazapentacyclo[17.5.2.1^2,6.0^13,18.0^22,25]heptacosa-1(24),2,4,6(27),13(18),14,16,19,21,25-decaen-5-yl}-hexahydro-1H-[1,3]oxazolo[3,4-a]pyrazin-3-one] | 630 | ≤ 5 | –
